Numbers after ± are expanded uncertainties.
Assay: xn = mol fraction of the nth substance listed
Details: Liquid, Vibrating tube method

CCC[N+]1(C)CCCCC1.O=S(=O)([N-]S(=O)(=O)C(F)(F)F)C(F)(F)F + CC(=O)c1ccccc1
mass density [kg/m3]
Details | 100 kPa | 10000 kPa | 15000 kPa | 20000 kPa | 25000 kPa | 30000 kPa | 35000 kPa | 40000 kPa | 45000 kPa | 50000 kPa
298.15 K, x2 = 0.1024 | 1393.3 ± 0.6 | 1399.9 ± 0.7 | 1402.9 ± 0.8 | 1406 ± 0.9 | 1408.8 ± 1 | 1411.6 ± 1.1 | 1414.3 ± 1.2 | 1417.1 ± 1.2 | 1419.8 ± 1.3 | 1422.4 ± 1.4
298.15 K, x2 = 0.2007 | 1376 ± 0.6 | 1382.5 ± 0.7 | 1385.4 ± 0.8 | 1388.5 ± 0.9 | 1391.3 ± 0.9 | 1394.1 ± 1 | 1396.8 ± 1.1 | 1399.5 ± 1.2 | 1402.2 ± 1.3 | 1404.8 ± 1.4
298.15 K, x2 = 0.3001 | 1355.5 ± 0.5 | 1361.8 ± 0.7 | 1364.8 ± 0.8 | 1367.9 ± 0.8 | 1370.7 ± 0.9 | 1373.5 ± 1 | 1376.2 ± 1.1 | 1379 ± 1.1 | 1381.7 ± 1.2 | 1384.3 ± 1.3
298.15 K, x2 = 0.4001 | 1331.8 ± 0.5 | 1338 ± 0.7 | 1341 ± 0.7 | 1344.1 ± 0.8 | 1346.9 ± 0.9 | 1349.7 ± 0.9 | 1352.4 ± 1 | 1355.1 ± 1.1 | 1357.8 ± 1.2 | 1360.4 ± 1.2
298.15 K, x2 = 0.5008 | 1303.8 ± 0.5 | 1309.9 ± 0.6 | 1312.8 ± 0.7 | 1315.8 ± 0.7 | 1318.5 ± 0.8 | 1321.3 ± 0.9 | 1324 ± 0.9 | 1326.6 ± 1 | 1329.3 ± 1.1 | 1331.8 ± 1.2
298.15 K, x2 = 0.6001 | 1270.5 ± 0.5 | 1276.6 ± 0.6 | 1279.5 ± 0.6 | 1282.5 ± 0.7 | 1285.2 ± 0.8 | 1287.9 ± 0.8 | 1290.5 ± 0.9 | 1293.2 ± 0.9 | 1295.7 ± 1 | 1298.2 ± 1.1
298.15 K, x2 = 0.7003 | 1229.4 ± 0.5 | 1235.5 ± 0.5 | 1238.3 ± 0.6 | 1241.2 ± 0.6 | 1243.9 ± 0.7 | 1246.5 ± 0.7 | 1249.1 ± 0.8 | 1251.7 ± 0.8 | 1254.2 ± 0.9 | 1256.7 ± 0.9
298.15 K, x2 = 0.7999 | 1178 ± 0.4 | 1184 ± 0.5 | 1186.8 ± 0.5 | 1189.7 ± 0.6 | 1192.3 ± 0.6 | 1194.9 ± 0.6 | 1197.5 ± 0.7 | 1200.1 ± 0.7 | 1202.6 ± 0.8 | 1205 ± 0.8
298.15 K, x2 = 0.8998 | 1111.5 ± 0.4 | 1117.3 ± 0.4 | 1120 ± 0.4 | 1122.7 ± 0.5 | 1125.2 ± 0.5 | 1127.8 ± 0.5 | 1130.4 ± 0.5 | 1133 ± 0.6 | 1135.4 ± 0.6 | 1137.8 ± 0.6
318.15 K, x2 = 0.1024 | 1376.7 ± 0.6 | 1383.4 ± 0.7 | 1386.8 ± 0.8 | 1389.8 ± 0.9 | 1392.8 ± 1 | 1395.8 ± 1 | 1398.8 ± 1.1 | 1401.6 ± 1.2 | 1404.5 ± 1.3 | 1407.1 ± 1.4
318.15 K, x2 = 0.2007 | 1359 ± 0.5 | 1365.7 ± 0.7 | 1369.1 ± 0.8 | 1372.1 ± 0.8 | 1375.1 ± 0.9 | 1378.1 ± 1 | 1381.1 ± 1.1 | 1383.9 ± 1.2 | 1386.7 ± 1.2 | 1389.3 ± 1.3
318.15 K, x2 = 0.3001 | 1338.4 ± 0.5 | 1345.1 ± 0.7 | 1348.5 ± 0.7 | 1351.5 ± 0.8 | 1354.5 ± 0.9 | 1357.5 ± 1 | 1360.5 ± 1 | 1363.3 ± 1.1 | 1366.1 ± 1.2 | 1368.7 ± 1.3
318.15 K, x2 = 0.4001 | 1314.6 ± 0.5 | 1321.3 ± 0.6 | 1324.7 ± 0.7 | 1327.7 ± 0.8 | 1330.7 ± 0.8 | 1333.7 ± 0.9 | 1336.5 ± 1 | 1339.3 ± 1 | 1342.1 ± 1.1 | 1344.8 ± 1.2
318.15 K, x2 = 0.5008 | 1286.6 ± 0.5 | 1293.1 ± 0.6 | 1296.5 ± 0.7 | 1299.5 ± 0.7 | 1302.4 ± 0.8 | 1305.4 ± 0.8 | 1308.2 ± 0.9 | 1310.9 ± 1 | 1313.7 ± 1 | 1316.3 ± 1.1
318.15 K, x2 = 0.6001 | 1253.2 ± 0.5 | 1259.8 ± 0.6 | 1263.1 ± 0.6 | 1266.1 ± 0.7 | 1269 ± 0.7 | 1271.9 ± 0.8 | 1274.8 ± 0.8 | 1277.4 ± 0.9 | 1280.2 ± 1 | 1282.8 ± 1
318.15 K, x2 = 0.7003 | 1212 ± 0.4 | 1218.5 ± 0.5 | 1221.8 ± 0.6 | 1224.7 ± 0.6 | 1227.7 ± 0.7 | 1230.6 ± 0.7 | 1233.4 ± 0.8 | 1236 ± 0.8 | 1238.7 ± 0.9 | 1241.3 ± 0.9
318.15 K, x2 = 0.7999 | 1160.6 ± 0.4 | 1167.1 ± 0.5 | 1170.2 ± 0.5 | 1173.1 ± 0.5 | 1176 ± 0.6 | 1178.8 ± 0.6 | 1181.7 ± 0.6 | 1184.2 ± 0.7 | 1186.9 ± 0.7 | 1189.5 ± 0.8
318.15 K, x2 = 0.8998 | 1093.9 ± 0.4 | 1100.3 ± 0.4 | 1103.4 ± 0.4 | 1106.3 ± 0.4 | 1109.2 ± 0.5 | 1112 ± 0.5 | 1114.9 ± 0.5 | 1117.4 ± 0.5 | 1120.1 ± 0.6 | 1122.6 ± 0.6
348.15 K, x2 = 0.1024 | 1350.8 ± 0.5 | 1357.9 ± 0.7 | 1361.5 ± 0.8 | 1365.1 ± 0.8 | 1368.5 ± 0.9 | 1371.7 ± 1 | 1374.9 ± 1.1 | 1377.9 ± 1.1 | 1381 ± 1.2 | 1383.8 ± 1.3
348.15 K, x2 = 0.2007 | 1333 ± 0.5 | 1340.3 ± 0.7 | 1344 ± 0.7 | 1347.5 ± 0.8 | 1350.9 ± 0.9 | 1354.1 ± 0.9 | 1357.4 ± 1 | 1360.4 ± 1.1 | 1363.4 ± 1.2 | 1366.2 ± 1.3
348.15 K, x2 = 0.3001 | 1312.4 ± 0.5 | 1319.7 ± 0.6 | 1323.4 ± 0.7 | 1327 ± 0.8 | 1330.4 ± 0.8 | 1333.7 ± 0.9 | 1336.8 ± 1 | 1339.9 ± 1.1 | 1342.8 ± 1.1 | 1345.6 ± 1.2
348.15 K, x2 = 0.4001 | 1288.5 ± 0.5 | 1295.8 ± 0.6 | 1299.5 ± 0.7 | 1303 ± 0.7 | 1306.4 ± 0.8 | 1309.6 ± 0.9 | 1312.8 ± 0.9 | 1315.8 ± 1 | 1318.8 ± 1.1 | 1321.6 ± 1.1
348.15 K, x2 = 0.5008 | 1260.2 ± 0.5 | 1267.6 ± 0.6 | 1271.2 ± 0.6 | 1274.6 ± 0.7 | 1277.9 ± 0.7 | 1281.2 ± 0.8 | 1284.3 ± 0.9 | 1287.3 ± 0.9 | 1290.3 ± 1 | 1293.1 ± 1
348.15 K, x2 = 0.6001 | 1226.6 ± 0.5 | 1234.1 ± 0.5 | 1237.7 ± 0.6 | 1241.1 ± 0.6 | 1244.4 ± 0.7 | 1247.7 ± 0.7 | 1250.8 ± 0.8 | 1253.8 ± 0.8 | 1256.8 ± 0.9 | 1259.6 ± 1
348.15 K, x2 = 0.7003 | 1185.5 ± 0.4 | 1193 ± 0.5 | 1196.6 ± 0.5 | 1199.9 ± 0.6 | 1203.2 ± 0.6 | 1206.5 ± 0.7 | 1209.6 ± 0.7 | 1212.6 ± 0.7 | 1215.6 ± 0.8 | 1218.4 ± 0.8
348.15 K, x2 = 0.7999 | 1134.2 ± 0.4 | 1141.7 ± 0.4 | 1145.2 ± 0.5 | 1148.6 ± 0.5 | 1151.8 ± 0.5 | 1155.1 ± 0.6 | 1158.2 ± 0.6 | 1161.2 ± 0.6 | 1164.2 ± 0.7 | 1167 ± 0.7
348.15 K, x2 = 0.8998 | 1067.9 ± 0.4 | 1075.4 ± 0.4 | 1078.9 ± 0.4 | 1082.1 ± 0.4 | 1085.4 ± 0.4 | 1088.6 ± 0.5 | 1091.7 ± 0.5 | 1094.7 ± 0.5 | 1097.7 ± 0.5 | 1100.4 ± 0.5
